Laboratory results: US8796324B2, “Substituted 2-acetamido-5-aryl-1,2,4-triazolones and use thereof” (Bayer Intellectual Property GmbH, priority 2009, dated 2014)

Key:
[1] = biological target: T1, human V1a receptor (Homo sapiens, UniProt P37288); assay: Cellular in vitro assay for determining the vasopressin receptor activity (aequorin luminescence); format: cell-based; conditions: CHO cell line transfected with the human V1a receptor; agonist [Arg8]-vasopressin; read-out: IC50 hV1a
T1 construct: expressed in transfected cells; host or cells: CHO K1 (constitutively expressing modified aequorin)
Excerpt: (§1) B-1. Cellular In Vitro Assay for Determining the Vasopressin Receptor Activity
(§2) The identification of agonists and antagonists of the V1a and V2 vasopressin receptors from humans and rats and also the quantification of the activity of the substances described here took place using recombinant cell lines. These cells derive originally from a hamster ovary epithelial cell (Chinese Hamster Ovary, CHO K1, ATCC: American Type Culture Collection, Manassas, Va. 20108, USA). The test cell lines constitutively express a modified form of the calcium-sensitive photoprotein aequorin, which, after reconstitution with the cofactor coelenterazine, emits light when there are increases in the free calcium concentration (Rizzuto R., Simpson A. W., Brini M., Pozzan T.; Nature 358 (1992) 325-327). In addition, the cells are stably transfected with the human or rat V1a or V2 receptors. In the case of the Gs-coupling V2 receptors, the cells are stably transfected with a further gene, which codes for the promiscuous Gα16 protein (Amatruda T. T., Steele D. A., Slepak V. Z., Simon M. I., Proc. Nat. Acad. Sci. USA 88 (1991), 5587-5591), either independently or as a fusion gene. The resulting vasopressin receptor test cells react to stimulation of the recombinantly expressed vasopressin receptors by intracellular release of calcium ions, which can be quantified by the resulting aequorin luminescence using a suitable luminometer (Milligan G., Marshall F., Rees S., Trends in Pharmaco. Sci. 17 (1996) 235-237).
(§3) On the day before the assay, the cells are plated out in culture medium (DMEM, 10% FCS, 2 mM glutamine, 10 mM HEPES) in 384-well microtiter plates and kept in a cell incubator (96% humidity, 5% v/v carbon dioxide, 37° C.). On the day of the assay, the culture medium is replaced by a Tyrode solution (140 mM sodium chloride, 5 mM potassium chloride, 1 mM magnesium chloride, 2 mM calcium chloride, 20 mM glucose, 20 mM HEPES), which additionally contains the cofactor coelenterazine (50 μM), and the microtiter plate is then incubated for a further 3-4 hours. The test substances in various concentrations are placed for 10 to 20 minutes in the wells of the microtiter plate before the agonist [Arg8]-vasopressin is added, and the resulting light signal is measured immediately in the luminometer. The IC50 values are calculated using the GraphPad PRISM computer program (Version 3.02).
(§4) The table below lists representative IC50 values for the compounds of the invention on the cell line transfected with the human V1a or V2 receptor: […]

[2] = biological target: T2, human V2 receptor (Homo sapiens, UniProt P30518); assay: as above; format: cell-based; conditions: CHO cell line transfected with the human V2 receptor (and Gα16); agonist [Arg8]-vasopressin; read-out: IC50 hV2
T2 construct: expressed in transfected cells; host or cells: CHO K1 (constitutively expressing modified aequorin; co-transfected with promiscuous G-alpha-16)
Excerpt: as §1, §2, §3, §4

T1 sequence (P37288 whole entry): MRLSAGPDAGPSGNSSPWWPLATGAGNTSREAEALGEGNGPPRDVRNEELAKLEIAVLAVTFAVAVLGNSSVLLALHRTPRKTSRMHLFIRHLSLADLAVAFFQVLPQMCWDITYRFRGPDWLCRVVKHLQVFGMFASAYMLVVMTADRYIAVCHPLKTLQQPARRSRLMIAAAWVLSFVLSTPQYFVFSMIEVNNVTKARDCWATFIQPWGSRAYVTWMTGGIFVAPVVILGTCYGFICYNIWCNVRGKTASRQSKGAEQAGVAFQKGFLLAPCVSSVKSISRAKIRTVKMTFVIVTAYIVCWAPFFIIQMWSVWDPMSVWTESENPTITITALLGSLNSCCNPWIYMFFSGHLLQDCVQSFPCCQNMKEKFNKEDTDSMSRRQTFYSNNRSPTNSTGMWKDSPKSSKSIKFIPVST
T2 sequence (P30518 whole entry): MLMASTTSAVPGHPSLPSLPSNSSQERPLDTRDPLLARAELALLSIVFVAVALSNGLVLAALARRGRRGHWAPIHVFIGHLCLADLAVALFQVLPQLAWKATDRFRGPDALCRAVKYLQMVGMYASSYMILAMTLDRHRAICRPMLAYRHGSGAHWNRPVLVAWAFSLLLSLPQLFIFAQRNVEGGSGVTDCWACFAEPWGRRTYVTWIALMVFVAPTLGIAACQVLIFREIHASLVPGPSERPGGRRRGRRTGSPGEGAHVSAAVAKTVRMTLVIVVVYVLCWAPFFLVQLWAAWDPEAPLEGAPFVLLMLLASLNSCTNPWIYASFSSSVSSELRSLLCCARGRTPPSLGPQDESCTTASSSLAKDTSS

Compound | IC50 [1] | IC50 [2]
NC(=O)OCC(NC(=O)Cn1nc(-c2ccc(Cl)cc2)n(C[C@H](O)C(F)(F)F)c1=O)c1ccccc1Cl (stereo partly drawn) [Example 53, 2-(2-Chlorophenyl)-2-[({3-(4-chlorophenyl)-5-oxo-4-[(2S)-3,3,3-trifluoro-2-hydroxypropyl]-4,5-dihydro-1H-1,2,4-triazol-1-yl}acetyl)amino]ethyl carbamate] | 1.5 nM | 4.9 nM
O=C(Cn1nc(-c2ccc(Cl)cc2)n(Cc2ccccc2F)c1=O)NC(CO)c1cccc(F)c1F (stereo not drawn) [Example 184] | 72 nM | 26.6 nM
NC(=O)OCC(NC(=O)Cn1nc(-c2ccc(Cl)cc2)n(C[C@H](O)C(F)(F)F)c1=O)c1cccc(Cl)c1Cl (single isomer, unassigned) [Example 203] | 2.7 nM | 4.4 nM
CC(=O)NCC(NC(=O)Cn1nc(-c2ccc(Cl)cc2)n(C[C@H](O)C(F)(F)F)c1=O)c1cccc(C(F)(F)F)c1 (mixture of isomers) [Example 20, N-{2-(Acetylamino)-1-[3-(trifluoromethyl)phenyl]ethyl}-2-{3-(4-chlorophenyl)-5-oxo-4-[(2S)-3,3,3-trifluoro-2-hydroxypropyl]-4,5-dihydro-1H-1,2,4-triazol-1-yl}acetamide (diastereomer mixture)] | 1.5 nM | 6.3 nM
O=C(Cn1nc(-c2ccc(Cl)cc2)n(C[C@H](O)C(F)(F)F)c1=O)NC(CO)c1cccc(C(F)F)c1 (stereo partly drawn) [Example 157, 2-{3-(4-Chlorophenyl)-5-oxo-4-[(2S)-3,3,3-trifluoro-2-hydroxypropyl]-4,5-dihydro-1H-1,2,4-triazol-1-yl}-N-{1-[3-(difluoromethyl)phenyl]-2-hydroxyethyl}acetamide] | 12.4 nM | 5.1 nM
NC(=O)OCC(NC(=O)Cn1cc(-c2ccc(Cl)cc2)n(CC(O)C(F)(F)F)c1=O)c1ccccc1C(F)(F)F (stereo not drawn) [Example 207, 2-({[4-(4-Chlorophenyl)-2-oxo-3-(3,3,3-trifluoro-2-hydroxypropyl)-2,3-dihydro-1H-imidazol-1-yl]acetyl}amino)-2-[2-(trifluoromethyl)phenyl]ethyl carbamate] | 3.3 nM | 101 nM
NC(=O)NCC(NC(=O)Cn1nc(-c2ccc(Cl)cc2)n(C[C@H](O)C(F)(F)F)c1=O)c1cccc(C(F)(F)F)c1 (single isomer, unassigned) [Example 57] | 2.9 nM | 2.2 nM
NC(=O)OCC(NC(=O)Cn1nc(-c2ccc(Cl)cc2)n(Cc2ccccc2F)c1=O)c1ccccc1C(F)(F)F (single isomer, unassigned) [Example 191, 2-({[3-(4-Chlorophenyl)-4-(2-fluorobenzyl)-5-oxo-4,5-dihydro-1H-1,2,4-triazol-1-yl]acetyl}amino)-2-[2-(trifluoromethyl)phenyl]ethyl carbamate] | 2.3 nM | 24.8 nM
COc1cccc(C(CCO)NC(=O)Cn2nc(-c3ccc(Cl)cc3)n(C3CC3)c2=O)c1 (racemic) [Example 89, 2-[3-(4-Chlorophenyl)-4-cyclopropyl-5-oxo-4,5-dihydro-1H-1,2,4-triazol-1-yl]-N-[3-hydroxy-1-(3-methoxyphenyl)propyl]acetamide] | 2880 nM | 290 nM
CS(=O)(=O)CC(NC(=O)Cn1nc(-c2ccc(Cl)cc2)n(C[C@H](O)C(F)(F)F)c1=O)c1ccccc1C(F)(F)F (single isomer, unassigned) [Example 136] | 3.9 nM | 24 nM
CS(=O)(=O)NCC(NC(=O)Cn1nc(-c2ccc(Cl)cc2)n(C[C@H](O)C(F)(F)F)c1=O)c1ccccc1C(F)(F)F (single isomer, unassigned; diastereomer ii) [Example 26] | 0.9 nM | 3.2 nM
NC(=O)OCC(NC(=O)Cn1nc(-c2ccc(Cl)cc2)n(/C=C/C(F)(F)F)c1=O)c1cccc(C(F)(F)F)c1 (single isomer, unassigned) [Example 65, 2-[({3-(4-Chlorophenyl)-5-oxo-4-[(1E)-3,3,3-trifluoroprop-1-en-1-yl]-4,5-dihydro-1H-1,2,4-triazol-1-yl}acetyl)amino]-2-[3-(trifluoromethyl)phenyl]ethyl carbamate] | 16.8 nM | 16.8 nM
